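These data come from cells grown in 96-well plates and exposed to compound for 48 hours at five concentrations. At the GI50, growth is halved.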 Active and inactive are the calls of the source. Rule as the data show it: active = GI50 up to about 1.1 µM and inactive = higher.
Tests used:
Test in all cases: DTP human tumour cell line panel, 48 h
786-0 = system: 786-0
A498 = system: A498
BT-549 = system: BT-549
CCRF-CEM = system: CCRF-CEM
EKVX = system: EKVX
Hs-578T = system: Hs-578T
MCF7 = system: MCF7
MDA-MB-231 = system: MDA-MB-231
MDA-N = system: MDA-N
NCI-H460 = system: NCI-H460
PC-3 = system: PC-3
SF-295 = system: SF-295
SK-MEL-5 = system: SK-MEL-5
SN12C = system: SN12C
SNB-75 = system: SNB-75
T47D = system: T47D
UACC-62 = system: UACC-62
UO-31 = system: UO-31
OVCAR-4 = system: OVCAR-4
SK-MEL-28 = system: SK-MEL-28

Measured: GI50

CCCCCCCCCCCCC(=O)NCC(=O)NC(Cc1ccccc1)C(=O)Oc1ccc([N+](=O)[O-])cc1 (stereo unspecified)
inactive: 786-0 84.3 µM | A498 > 100 µM | BT-549 44.9 µM | CCRF-CEM 29.4 µM | EKVX 70.6 µM | Hs-578T 75.3 µM | MCF7 57.5 µM | MDA-MB-231 48.4 µM | MDA-N > 100 µM | NCI-H460 > 100 µM | PC-3 > 100 µM | SF-295 50.4 µM | SK-MEL-5 72.4 µM | SN12C 70.1 µM | SNB-75 18.5 µM | T47D 92.9 µM | UACC-62 60.3 µM | UO-31 92.9 µM

COc1cccc(-c2ccc3c4c2O[C@H]2C(=O)CC[C@@]5(O)[C@@H](C3)N(CC3CC3)CC[C@]425)c1
inactive: 786-0 16.1 µM | A498 18.7 µM | BT-549 18.4 µM | CCRF-CEM 7.29 µM | EKVX 17.1 µM | Hs-578T 12.3 µM | MCF7 16 µM | MDA-MB-231 15.8 µM | MDA-N 18.9 µM | NCI-H460 28.9 µM | OVCAR-4 15.1 µM | PC-3 13.4 µM | SF-295 18.4 µM | SK-MEL-28 27.4 µM | SK-MEL-5 14.8 µM | SN12C 18.5 µM | T47D 18.4 µM | UACC-62 17.1 µM | UO-31 14.5 µM

Nc1ncn(C/C=C/c2ccccc2)c2ncnc1-2
inactive: 786-0 > 100 µM | A498 75.3 µM | BT-549 > 100 µM | EKVX 32.4 µM | Hs-578T > 100 µM | MCF7 > 100 µM | MDA-MB-231 > 100 µM | MDA-N > 100 µM | NCI-H460 > 100 µM | OVCAR-4 > 100 µM | PC-3 > 100 µM | SF-295 > 100 µM | SK-MEL-28 > 100 µM | SK-MEL-5 > 100 µM | SN12C > 100 µM | SNB-75 70.3 µM | T47D > 100 µM | UACC-62 > 100 µM | UO-31 > 100 µM

C=C(C)C(=O)OC1CC2=CC(CC3(C)OC3C3OC(=O)C(=C)C13)OC2=O (stereo unspecified)
inactive: 786-0 7.24 µM | A498 16.6 µM | BT-549 11.8 µM | EKVX 15 µM | Hs-578T 22.6 µM | MCF7 3.81 µM | MDA-MB-231 18.1 µM | MDA-N > 10 µM | NCI-H460 17.9 µM | OVCAR-4 12.6 µM | PC-3 14.7 µM | SF-295 18.6 µM | SK-MEL-28 12.3 µM | SK-MEL-5 16.9 µM | SN12C 13.7 µM | SNB-75 14.7 µM | T47D 4.67 µM | UACC-62 9.18 µM | UO-31 13.1 µM

O=C(CN1CCOCC1)NC1=Nc2ncccc2C(=O)NN1
inactive: 786-0 > 10 µM | A498 > 10 µM | BT-549 > 10 µM | CCRF-CEM > 10 µM | EKVX > 10 µM | Hs-578T > 10 µM | MCF7 > 10 µM | MDA-MB-231 > 10 µM | MDA-N > 10 µM | NCI-H460 > 10 µM | PC-3 > 10 µM | SF-295 > 10 µM | SK-MEL-28 > 10 µM | SK-MEL-5 > 10 µM | SN12C > 10 µM | SNB-75 > 10 µM | T47D > 10 µM | UACC-62 > 10 µM | UO-31 > 10 µM

c1nncn1C12C3C4C5C3C1C5C42 (stereo unspecified)
inactive: 786-0 > 100 µM | A498 > 100 µM | BT-549 > 100 µM | CCRF-CEM > 100 µM | EKVX > 100 µM | Hs-578T > 100 µM | MCF7 > 100 µM | MDA-MB-231 > 100 µM | MDA-N > 100 µM | NCI-H460 > 100 µM | PC-3 > 100 µM | SF-295 > 100 µM | SK-MEL-28 > 100 µM | SK-MEL-5 > 100 µM | SN12C > 100 µM | SNB-75 > 100 µM | T47D > 100 µM

Source: ChEMBL document CHEMBL1201862, “PubChem BioAssay data set” (2004)
